Results published in patent US11419870B2, “Intermittent dosing of MDM2 inhibitor” (Novartis AG, priority 2014, dated 2022).

Experiments:
[1] = test system: p21, Mdm2 and cleaved Caspase-3 in jejunum and bone marrow (sternum); assay: Immunohistochemistry of host tissues after i.v. treatment; format: in vivo, rat; conditions: i.v. 20 mg/kg
Description: Sections were cut at 3 μm using a microtome. p21 and cleaved Caspase-3 immunohistochemistry was performed on a Ventana Discovery XT automated immunostainer using the OmniMap anti Mouse or Rabbit HRP secondary reagent and the ChromoMap DAB chromogen system (Ventana/Roche Diagnostics GmbH, Mannheim, Germany). […] The primary antibody was applied manually at the desired dilution in Dako antibody diluent, followed by incubation for 1 hour at room temperature. Corresponding negative controls were incubated with AbD only. Counterstaining of sections was done using hematoxylin (Ventana/Roche Diagnostics). After the automated staining run, slides were dehydrated in a graded series of ethanol, cleared in xylene and mounted with Pertex mounting medium.

[2] = Pharmacokinetics of Compound A in SJSA-1 tumor-bearing rat (plasma, tumor, tissues; UPLC/MS-MS); format: in vivo, nude rat
Description: (§1) Subcutaneous tumors were induced by concentrating 1.0×10^7 SJSA-1 cells in 50% Matrigel® and injecting in the right flank of Harlan nude rats. Efficacy experiment could start 14 days post cell injection. […] The animals were treated either at a high dose (20 mg/kg i.v. or 27 mg/kg p.o.) once every 3 weeks (q3w) or at a high dose (15 mg/kg p.o.) followed 24 h later by a daily low dose treatment (3 mg/kg p.o., 2 weeks on/2 weeks off).
(§2) At the times indicated, animals were anaesthetized by exposure to 2-3% v/v isofluorane in medical oxygen: • Either the animal was killed without recovering from anesthetic after blood sampling. Blood was collected into commercially prepared EDTA coated tubes (Milian, cat #TOM-14C) in order to extract plasma. The tissues were excised, weighed and rapidly frozen in liquid nitrogen. • Or a tumor biopsy was collected by using a biopsy gun and flushing the needle with RLT buffer in Barney rubble tubes (Covaris, cat #520048). In addition, 20 μl of blood may have been collected from the tail vein and diluted in 20 μl of water. After recovery of anesthesia, animals were transferred in their respective cages.
Tissues were homogenized in an equal volume of HPLC-Water (Water for chromatography, Merck) using the Fast Prep®-24 system (M.P. Biomedicals, Irvine, Calif., USA). Following addition of 25 μl of internal standard mixture (1 μg/ml) to analytical aliquots (25 μl) of plasma or tissues homogenate the proteins were precipitated by the addition of 200 μl acetonitrile. The supernatant were transferred in a fresh vial. After evaporation to dryness the samples were re-dissolved in 60 μl acetonitrile/water (1/1 v/v). An aliquot (5 μl) of this solution was separated on a ACQUITY UPLC BEH C18 column (Waters™ 1.7 μm particle size, 2.1×50 mm) with a mobile phase consisting of a mixture of 0.1% formic acid in water (solvent A) and 0.1% formic acid in acetonitrile (solvent B). Gradient programming was used with a flow rate of 600 μl/min. After equilibration with 95% solvent A, 5 μl of sample was injected. Following a latency period of 0.25 min, the sample was eluted with a linear gradient of 5-100% solvent B over a period of 0.65 minutes followed by a 0.35 minutes hold. The column was prepared for the next sample by re-equilibrating over 0.25 minutes to the starting conditions. The column eluent was directly introduced into the ion source of the triple quadrupole mass spectrometer TQD™ (Waters Corporation, Milford, Mass., USA) controlled by Masslynx™ 4.1 software. Electrospray positive ionization (ESI+) multiple reaction monitoring was used for the MS/MS detection of the analyte. […] The limit of quantification (LOQ) for the compound was set to 0.7 ng/mL (CV and overall bias less than 30%). Regression analysis and further calculations were performed using QuanLynx™ 4.1 (Micromass) and Excel™ 2007 (Microsoft). Concentrations of unknown samples were back-calculated based on the peak area ratios of analyte/IS from a calibration curve constructed using calibration samples spiked in blank plasma or tissue obtained from animals treated with vehicle.
Areas under the plasma concentration versus time curves (AUC) were calculated from the mean values with linear trapezoidal rule, and further relevant parameters by using a non-compartmental model for extravascular dosing (WinNonlin® Professional Version 5.2, Pharsight corp., CA, US).

Cdkn1 a (p21) = assay: Pharmacodynamic qRT-PCR: p21 mRNA induction in SJSA-1 tumor; format: in vivo, nude rat
Text: as §2
Frozen tissues were cryogenic dry pulverized and biopsies were sonicated using the CryoPrep™ system (model CP-02) from Covaris. More specifically, frozen tissues were transferred to disposable tubes called TissueTubes™, placed in the CryoPrep™ system and then pulverized using the appropriate impact setting. The resulting powder was collected with a spatula and weighed for further processing (mRNA purification or quantification of compound in tissues). The biopsies were flushed in a Barney rubble glass tubes with 350 μl of RLT buffer and placed in the Covaris for sonication (1 min per biopsy). The resulting lysate was transferred into a QIAshredder (79654, Qiagen) column for RNA extraction.
Total RNA was purified from cell pellets using the QIAshredder (79654, Qiagen) and RNeasy Mini Kit (74106, Qiagen) according to the manufacturer's instructions, with the exception that no DNA digestion was performed. Total RNA was eluted with 50 μL of RNase-free water. Total RNA was quantitated using the spectrophotometer ND-1000 Nanodrop®. The qRT-PCR (Quantitative Reverse Transcriptase Polymerase Chain Reaction) was set up in triplicate per sample using the One-Step RT qPCR Master Mix Plus (RT-QPRT-032X, Eurogentec), with either control primers and primers for the target, namely TaqMan Gene Expression assays (20× probe dye FAM™ (or VIC)-TAMRA (or MGB); Applied Biosystems) listed in Table 1.

SJSA-1 tumor = assay: Efficacy on SJSA-1 tumor-bearing nude rat (tumor volume); format: in vivo
Description: as §1
The tumor volume (TVol) and body-weight (BW) of the animal were measured three times per week allowing calculation at any particular time-point relative to the day of initiation of treatment (day 0) of the percentage change in TVol (Δ% TVol). Tumor response was quantified by the change in tumor volume (endpoint minus starting value in mm^3) as the T/C i.e.
[formula] In the case of a tumor regression or to assess the percentage of change in TVol, the tumor response was quantified by the percentage of regression of the starting TVol, ie

[3] = i.v. q3w 20 mg/kg, three weeks post first treatment

COc1ncc(-c2nc3c(n2C(C)C)[C@H](c2ccc(Cl)cc2)N(c2cc(Cl)cn(C)c2=O)C3=O)c(OC)n1 [Compound A, (S)-5-(5-Chloro-1-methyl-2-oxo-1,2-dihydro-pyridin-3-yl)-6-(4-chloro-phenyl)-2-(2,4-dimethoxy-pyrimidin-5-yl)-1-isopropyl-5,6-dihydro-1H-pyrrolo[3,4-d]imidazol-4-one]
time of maximum increase in p21, Mdm2 and cleaved Caspase-3 ([1]; jejunum and bone marrow (sternum)): 3 h | time of return of all staining to baseline ([1]; post treatment): 7 days | Cmax and AUC0-24 h in blood ([2]; after first p.o. treatment, 20 and 27 mg/kg q3w): dose-dependently increased | exposure in heart, jejunum, spleen, liver and bone marrow compared to plasma ([2]; i.v. 20 mg/kg on day 59 post first treatment): twice as high as in plasma | Tmax ([2]; nude (Harlan), rat, iv, single i.v. injection 20 mg/kg, liver): 5 min | Tmax ([2]; nude (Harlan), rat, iv, single i.v. injection 20 mg/kg, plasma): 5 min | Tmax ([2]; nude (Harlan), rat, iv, single i.v. injection 20 mg/kg, tumor): 60 min | Tmax ([2]; nude (Harlan), rat, single oral 27 mg/kg, all matrices (plasma, tumor and liver)): 180 min | AUC(0-t) ([2]; nude (Harlan), rat, single oral 27 mg/kg, plasma, read-out: AUC0-144 h): 112 µM·h | exposure in tumor compared to plasma ([2]; single i.v. injection 20 mg/kg): two times higher | AUC0-144 h dn ([2]; single i.v. injection 20 mg/kg, tumor): 16.5 nmol·h/g | AUC0-144 h ([2]; single oral 27 mg/kg, tumor): 277.7 nmol·h/g | p21 mRNA expression in tumor (Cdkn1 a (p21); after first p.o. treatment, 20 and 27 mg/kg): dose-dependently increased | p21 mRNA expression increase in tumor (Cdkn1 a (p21); after first single i.v. treatment 20 mg/kg): more than 50 fold | p21 mRNA expression max (Cdkn1 a (p21); single i.v. 20 mg/kg, 24 h post treatment, tumor): 200 fold | p21 mRNA induction Emax (Cdkn1 a (p21); single oral 27 mg/kg, 48 h post treatment, tumor): 180 fold | tumor regression (SJSA-1 tumor; i.v. q3w 20 mg/kg, after the second treatment): 100% | rats with partial response (more than 50% regression) (SJSA-1 tumor; [3]): 2 | tumor regression on average (SJSA-1 tumor; [3]): 6% | SJSA-1 tumor regression (SJSA-1 tumor; p.o. q3w 27 mg/kg, after two cycles (after the second treatment)): 27%
